The text below walks through data of ChEMBL document CHEMBL1149535, “2-Arylimino-5,6-dihydro-4H-1,3-thiazines as a new class of cannabinoid receptor agonists. Part 2: orally bioavailable compounds” (Bioorg Med Chem Lett, 2007).

In data set [1] the target is Cannabinoid receptor 2 (Homo sapiens, UniProt P34972). Description: Binding affinity to human CB2 receptor.
In data set [2] the target is Cannabinoid receptor 1 (Homo sapiens, UniProt P21554). The data set is described as follows: Binding affinity to human CB1 receptor.
Data set [3] in a line: Total clearance in rat at 0.5 mg/kg, iv and 1 mg/kg, po. Format: ADME, organism-based. The note with it: in vivo.
The nature of data set [4]: Oral bioavailability in rat at 1 mg/kg. It counts as ADME, organism-based. The following applies: in vivo.
Data set [5] concerns Mus musculus. The data set is described as follows: Analgesic activity against formalin-induced acute pain in iv dosed mouse. It counts as functional.
The subject of data set [6] is Mus musculus. The data set is described as follows: Analgesic activity against formalin-induced inflammatory pain in iv dosed mouse. It counts as functional.
Data set [7] deals with Mus musculus. Description: Analgesic activity against formalin-induced inflammatory pain in po dosed mouse. Format: functional.
Data set [8] can be described thus: Half life in rat at 2 mg/kg, iv and 30 mg/kg, po. It counts as ADME, organism-based. The note with it: in vivo.
Data set [9] deals with Mus musculus. The data set is described as follows: Analgesic activity against formalin-induced acute pain in po dosed mouse. Format: functional.
The nature of data set [10]: Total clearance in rat at 2 mg/kg, iv and 30 mg/kg, po. It counts as ADME, organism-based. The following applies: in vivo.
The nature of data set [11]: Oral bioavailability in rat at 30 mg/kg. It counts as ADME, organism-based. The note with it: in vivo.
For data set [12], the target named is Cannabinoid receptor 2 (Mus musculus, UniProt P47936). The data set is described as follows: Binding affinity to mouse CB2 receptor.
Data set [13] is described as follows: AUC in rat at 30 mg/kg, po. Format: ADME, organism-based. On the set-up: dose 30 mg/kg, route oral. The following applies: plasma.
Data set [14] addresses Cannabinoid receptor 1 (Mus musculus, UniProt P47746). Description: Binding affinity to mouse CB1 receptor.

Where only a bound is given, the exact number is not on record here.

Sequence of Cannabinoid receptor 1 (Mus musculus, UniProt P47746) (P47746 whole entry): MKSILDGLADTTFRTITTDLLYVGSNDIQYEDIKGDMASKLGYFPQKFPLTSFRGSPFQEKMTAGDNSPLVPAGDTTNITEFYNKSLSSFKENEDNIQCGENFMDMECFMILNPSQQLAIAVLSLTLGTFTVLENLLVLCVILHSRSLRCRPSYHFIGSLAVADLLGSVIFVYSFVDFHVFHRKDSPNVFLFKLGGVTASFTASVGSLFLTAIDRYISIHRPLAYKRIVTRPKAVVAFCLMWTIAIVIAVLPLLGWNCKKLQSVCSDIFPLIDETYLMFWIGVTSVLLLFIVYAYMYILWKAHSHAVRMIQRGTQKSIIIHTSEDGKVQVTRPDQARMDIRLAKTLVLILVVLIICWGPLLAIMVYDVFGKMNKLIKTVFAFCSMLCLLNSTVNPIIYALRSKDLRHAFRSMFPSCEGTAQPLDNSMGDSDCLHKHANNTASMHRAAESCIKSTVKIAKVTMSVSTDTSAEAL
Sequence of Cannabinoid receptor 2 (Mus musculus, UniProt P47936) (P47936 whole entry): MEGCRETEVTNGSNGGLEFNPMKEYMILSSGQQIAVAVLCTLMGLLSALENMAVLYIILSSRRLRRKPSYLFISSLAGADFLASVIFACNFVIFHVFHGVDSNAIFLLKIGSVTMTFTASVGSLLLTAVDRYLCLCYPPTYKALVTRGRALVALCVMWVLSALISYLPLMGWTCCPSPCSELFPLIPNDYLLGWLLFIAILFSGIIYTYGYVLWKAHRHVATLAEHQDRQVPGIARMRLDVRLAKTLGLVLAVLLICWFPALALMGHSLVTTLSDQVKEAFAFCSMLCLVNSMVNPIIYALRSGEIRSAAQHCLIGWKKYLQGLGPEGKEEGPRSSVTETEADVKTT
Sequence of Cannabinoid receptor 1 (Homo sapiens, UniProt P21554) (P21554 whole entry): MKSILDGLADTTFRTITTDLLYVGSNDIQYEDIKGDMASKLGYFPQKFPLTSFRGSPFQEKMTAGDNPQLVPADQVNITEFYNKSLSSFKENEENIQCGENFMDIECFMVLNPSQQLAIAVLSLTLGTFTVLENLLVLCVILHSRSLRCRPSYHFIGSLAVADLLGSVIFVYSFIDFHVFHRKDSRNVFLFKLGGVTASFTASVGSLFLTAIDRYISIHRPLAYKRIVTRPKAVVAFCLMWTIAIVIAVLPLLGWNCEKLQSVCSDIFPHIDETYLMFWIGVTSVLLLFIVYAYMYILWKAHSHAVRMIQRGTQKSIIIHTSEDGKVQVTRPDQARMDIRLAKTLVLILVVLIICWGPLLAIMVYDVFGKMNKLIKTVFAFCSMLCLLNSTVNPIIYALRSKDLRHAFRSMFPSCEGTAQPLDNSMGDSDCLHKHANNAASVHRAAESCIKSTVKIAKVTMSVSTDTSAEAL
Sequence of Cannabinoid receptor 2 (Homo sapiens, UniProt P34972) (P34972 whole entry): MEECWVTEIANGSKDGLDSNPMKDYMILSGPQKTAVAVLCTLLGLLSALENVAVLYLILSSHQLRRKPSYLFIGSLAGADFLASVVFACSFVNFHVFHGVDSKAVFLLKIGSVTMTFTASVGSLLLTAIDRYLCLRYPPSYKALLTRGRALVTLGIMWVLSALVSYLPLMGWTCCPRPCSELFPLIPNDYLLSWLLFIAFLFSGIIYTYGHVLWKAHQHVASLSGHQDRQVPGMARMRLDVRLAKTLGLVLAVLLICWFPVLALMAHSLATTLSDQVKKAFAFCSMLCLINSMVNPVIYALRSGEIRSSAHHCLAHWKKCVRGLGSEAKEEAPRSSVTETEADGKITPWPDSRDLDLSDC

What is called Ki is a measure of affinity in units of concentration, obtained from inhibition or displacement. A low value points to tighter binding. For the molecule `CCCc1ccc(/N=C2\SCC3(CCCCC3)CN2C(=S)SC)cc1`, the Ki on Cannabinoid receptor 2 [1] turned out to be 7 nM; on Cannabinoid receptor 1 [2] it was 514 nM.
Regarding `CSC(=S)N1CC2(CCCCC2)CS/C1=N\c1ccc(C(F)(F)F)cc1`, the Ki stood at 18 nM at Cannabinoid receptor 2 [1] and 1730 nM on Cannabinoid receptor 1 [2].
By bioavailability is commonly meant dose-corrected exposure relative to a reference, in per cent. A high value points to much systemic uptake. `CCC1(CC)CS/C(=N\c2ccccc2C(C)C)N(C(=S)SC)C1` came in with a clearance in data set [3] of 48.3 mL/min/kg. Also, the Ki is 9 nM at Cannabinoid receptor 2 [1] and more than 5000 nM at Cannabinoid receptor 1 [2]. In data set [4], this molecule had a bioavailability of 19%.
Regarding `CCOc1ccccc1/N=C1\SCC2(CCCCC2)CN1C(=S)SC`, the Ki was 6.3 nM at Cannabinoid receptor 2 [1] and 358 nM on Cannabinoid receptor 1 [2].
As to `CSC(=S)N1CC2(CC2)CS/C1=N\c1ccccc1C(C)C`, the clearance in [3] was 85.1 mL/min/kg. The molecule also gave a Ki at Cannabinoid receptor 2 [1] of 65 nM. The bioavailability in data set [4] is 14%.
In data set [3], `CSC(=S)N1CC2(CCCCC2)CS/C1=N\c1cccc2ncccc12` yielded a clearance of 121 mL/min/kg. Besides, the Ki at Cannabinoid receptor 2 [1] came to 11 nM; on Cannabinoid receptor 1 [2] it was 763 nM. This molecule yielded a bioavailability in data set [4] of 42%.
Take `CSC(=S)N1CC2(CCCC2)CS/C1=N\c1ccccc1C(C)C`: the clearance in data set [3] is 54.2 mL/min/kg. Moreover, the Ki at Cannabinoid receptor 2 [1] turned out to be 1 nM; at Cannabinoid receptor 1 [2], 541 nM. Further, in [4], the bioavailability was 8.9%.
Broadly, the ED50 is the dose that gives a 50% effect, or the effect in half of the subjects. The low end stands for greater potency, the high end for weaker potency. In the case of `CCCCCc1cc(O)c2c(c1)OC(C)(C)[C@@H]1CCC(C)=C[C@@H]21` [DRONABINOL], the results for the ED50 with Mus musculus [5] and in the data set on Mus musculus [6] were 0.4 mg/kg and 0.3 mg/kg, respectively.
`CSC(=S)N1CC2(CCCCC2)CS/C1=N\c1cccc2nonc12`: the Ki on Cannabinoid receptor 2 [1] stood at 0.9 nM; at Cannabinoid receptor 1 [2] it was 246 nM.
On to `CCc1ccc(/N=C2\SCC3(CCCCC3)CN2C(=S)SC)cc1`, for which the Ki at Cannabinoid receptor 2 [1] was found to be 1.2 nM; on Cannabinoid receptor 1 [2], 95 nM.
Broadly, the half-life is the time in which the quantity being followed falls by half. Lower therefore signals rapid decline. A word on the AUC: it is concentration integrated over time. Low values mean low exposure, high ones high exposure. `CSC(=S)N1CC2(CCCCC2)CS/C1=N\c1cccc2ccccc12`: the clearance in [3] is 17.7 mL/min/kg; in [10] it was 30.1 mL/min/kg. Also, the ED50 in the data set on Mus musculus [7] stood at 1 mg/kg; in the data set with Mus musculus [9], 1.5 mg/kg; with Mus musculus [5], 0.4 mg/kg; in the data set on Mus musculus [6], 0.4 mg/kg. Further, the half-life in data set [8] was 1.5 h. For the same molecule, the Ki at Cannabinoid receptor 2 [1] stood at 6 nM; on Cannabinoid receptor 2 [12] it was 4 nM; on Cannabinoid receptor 1 [2], 30 nM; on Cannabinoid receptor 1 [14] it was 6.8 nM. Moreover, the results for the bioavailability in [11] and in [4] were 36% and 53%, respectively. For the same molecule, the AUC in data set [13] is 6100 ng·h/mL.
In data set [3], `CSC(=S)N1CC(C)(C)CS/C1=N\c1ccccc1C(C)C` showed a clearance of 63.4 mL/min/kg. At Cannabinoid receptor 1 [2], this molecule showed an inhibitory constant (Ki) of more than 5000 nM. For the same molecule, the bioavailability in data set [4] stood at 10%.
With `CN1CC[C@]23c4c5ccc(O)c4O[C@H]2[C@@H](O)C=C[C@H]3[C@H]1C5` [MORPHINE], the ED50 was found to be 9.8 mg/kg with Mus musculus [7], 27.3 mg/kg in the data set with Mus musculus [9], 1.1 mg/kg with Mus musculus [5] and 1.1 mg/kg in the data set on Mus musculus [6].
On to `COc1ccc(/N=C2\SCC3(CCCCC3)CN2C(=S)SC)cc1`, for which the Ki at Cannabinoid receptor 2 [1] is 3.8 nM; on Cannabinoid receptor 1 [2] it was 671 nM.
The corresponding values for `CSC(=S)N1CC2(CCCCC2)CS/C1=N\c1ccccc1C(F)(F)F` are 1.1 nM and 418 nM.
Regarding `CSC(=S)N1CC2(CCCCC2)CS/C1=N\c1cccc2c1CCCN2C`, the figures for the Ki at Cannabinoid receptor 2 [1] and on Cannabinoid receptor 1 [2] were 1.1 nM and 85 nM, respectively.
As to `CSC(=S)N1CC2(CCCCC2)CS/C1=N\c1ccc(C#N)cc1`, the Ki on Cannabinoid receptor 2 [1] stood at 2.3 nM; at Cannabinoid receptor 1 [2], 173 nM.
The corresponding values for `CSC(=S)N1CC2(CCCCC2)CS/C1=N\c1cccc2c1CCC2` are 5 nM and 243 nM.
Regarding `CSC(=S)N1CC2(CCCCC2)CS/C1=N\c1cccc2c1CCCC2`, the clearance is 19.1 mL/min/kg in data set [3] and 23.3 mL/min/kg in [10]. Besides, the 50% effective dose (ED50) in the data set on Mus musculus [7] came to 4 mg/kg; in the data set with Mus musculus [9], 2.5 mg/kg; in the data set on Mus musculus [5] it was 0.3 mg/kg; in the data set on Mus musculus [6], 0.2 mg/kg. The molecule also gave a half-life in data set [8] of 4.1 h. Moreover, the Ki was determined as 0.2 nM on Cannabinoid receptor 2 [1], 0.7 nM on Cannabinoid receptor 2 [12], 15 nM on Cannabinoid receptor 1 [2] and 6 nM at Cannabinoid receptor 1 [14]. Moreover, the results for the bioavailability in data set [11] and in [4] were 7% and 44%, respectively. The same molecule had an AUC in data set [13] of 1500 ng·h/mL.
Take `CSC(=S)N1CC2(CCCCC2)CS/C1=N\c1ccc(C(C)C)cc1`: the Ki on Cannabinoid receptor 2 [1] was determined as 23 nM; on Cannabinoid receptor 1 [2] it was 1260 nM.
Take `CSC(=S)N1CC2(CCCCC2)CS/C1=N\c1cccc(C)c1C`: the Ki on Cannabinoid receptor 2 [1] came to 1 nM; on Cannabinoid receptor 1 [2], 114 nM.
The matching figures for `CSC(=S)N1CC2(CCCCC2)CS/C1=N\c1ccccc1OC(F)(F)F`: 12 nM and 711 nM.
Regarding `CSC(=S)N1CC2(CCCCC2)CS/C1=N\c1ccc2c(c1)CCCC2`, the Ki at Cannabinoid receptor 2 [1] was found to be 24 nM; at Cannabinoid receptor 1 [2], 396 nM.
For the molecule `COc1cccc(/N=C2\SCC3(CCCCC3)CN2C(=S)SC)c1`, the clearance in data set [3] worked out at 45.1 mL/min/kg. The figures for the Ki on Cannabinoid receptor 2 [1] and at Cannabinoid receptor 1 [2] were 1 nM and 108 nM, respectively. The bioavailability in data set [4] came to 13%.
Take `COc1ccccc1/N=C1\SCC2(CCCCC2)CN1C(=S)SC`: in [3], the clearance came to 75.9 mL/min/kg. The Ki on Cannabinoid receptor 2 [1] was determined as 1.1 nM; on Cannabinoid receptor 1 [2], 13 nM. This molecule also yielded a bioavailability in [4] of 0.4%.
As to `CSC(=S)N1CC2(CCCCC2)CS/C1=N\c1ccc(OC(F)(F)F)cc1`, the clearance in [3] is 7.4 mL/min/kg; in [10] it was 25.9 mL/min/kg. Besides, the ED50 in the data set with Mus musculus [7] was more than 100 mg/kg; in the data set on Mus musculus [9], more than 100 mg/kg; in the data set on Mus musculus [5] it was more than 20 mg/kg; in the data set on Mus musculus [6] it was more than 20 mg/kg. The molecule further showed a half-life in data set [8] of 2.4 h. Besides, the Ki turned out to be 6 nM at Cannabinoid receptor 2 [1], 7 nM at Cannabinoid receptor 2 [12], 1500 nM at Cannabinoid receptor 1 [2] and 1210 nM on Cannabinoid receptor 1 [14]. In addition, the bioavailability in data set [11] came out at 20%; in data set [4], 24%. For the same molecule, the AUC in data set [13] is 3900 ng·h/mL.
As to `CSC(=S)N1CC2(CCCCC2)CS/C1=N\c1cccc(C(C)C)c1`, the figures for the Ki at Cannabinoid receptor 2 [1] and on Cannabinoid receptor 1 [2] were 2.5 nM and 100 nM, respectively.
In the case of `CSC(=S)N1CC2(CCCCC2)CS/C1=N\c1ccccc1C(C)C`, the clearance stood at 18.6 mL/min/kg in data set [3] and 38.2 mL/min/kg in data set [10]. The ED50 in the data set with Mus musculus [7] was 17.5 mg/kg; in the data set on Mus musculus [9], 17.5 mg/kg; with Mus musculus [5], 1.2 mg/kg; with Mus musculus [6] it was 1.1 mg/kg. In data set [8], this molecule had a half-life of 2.5 h. The Ki on Cannabinoid receptor 2 [1] is 0.8 nM; at Cannabinoid receptor 2 [12] it was 1.2 nM; on Cannabinoid receptor 1 [2], 122 nM; on Cannabinoid receptor 1 [14] it was 80 nM. Moreover, the bioavailability in [11] worked out at 24%; in [4], 32%. In [13], this molecule yielded an AUC of 3200 ng·h/mL.
In data set [3], `CSC(=S)N1CC2(CCCCC2)CS/C1=N\c1cccc2nsnc12` gave a clearance of 60.4 mL/min/kg. Also, the inhibitory constant (Ki) on Cannabinoid receptor 2 [1] is 1.3 nM; on Cannabinoid receptor 1 [2] it was 44 nM.
